How the values were obtained:
[1] = target: T1, NMDA receptor glycine site (Rattus norvegicus, UniProt P35439); test: Test A: Inhibition of binding of [3H]-MDL105,519 to brain membranes; conditions: displacement of 1.2 nM [3H]MDL105,519, brain membranes
T1 construct: The rat brain membranes used in the experiments were obtained from Analytical Biological Services Inc; tissue Analytical Biological Services Inc; host or cells: rat brain membranes (cerebral cortex and hippocampus, male Sprague Dawley rats)
Description: Test A: Inhibition of Binding of [^3H]-MDL105,519:
Binding of compounds to the NMDA receptor glycine site may be assessed by measuring the ability of test compounds to inhibit the binding of tritiated MDL105,519 to brain membranes bearing the receptor.
Briefly, fresh brain tissue including cerebral cortex and hippocampus from male Sprague Dawley rats was homogenized in 0.32 M sucrose and centrifuged at low speed to separate cellular membranes from other cellular components. The membranes were then washed 3 times using deionized water, followed by treatment with 0.04% Triton X-100. Finally, membranes were washed six times in 50 mM Tris citrate buffer, pH 7.4, and frozen at −80° C. until use.
[^3H]MDL105,519 (72 Ci/mmol) was purchased from Amersham. Cold MDL105,519 was purchased from Sigma/RBI. Binding assays were performed substantially in accordance with the protocol of B. M. Baron et al., J. Phannacol. […] On the day of the experiment, brain membranes were thawed at room temperature and suspended in 50 mM tris acetate buffer, pH 7.4 (“TAB”). Seventy-five micro grams per milliliter protein (by using the BioRad dye) were used for competition binding. The experiments were carried out using 96-well plates. […] Non specific binding was determined by using 100 μM of unlabeled MDL105,519. […] After incubation, unbound [^3H]MDL105,519 was removed by filtration onto GF/B Unifilter plates using a Packard harvester. Filters were washed four times with ice cold TAB (total of 1.2 mL buffer). The plates were dried overnight at room temperature and bound radioactivity was measured on a Packard TopCount after the addition of 45 μL per well of the MICROSCINT O.
Human Brain Membranes: Human brain membranes were obtained from Analytical Biological Services Inc., and assays were performed as described for rat membranes.
Data analysis: Data was analyzed using a Microsoft Excel spreadsheet and GraphPad Prizm software and potency of compounds is expressed as the Ki (nM).

[2] = system: CCI rats (thermal hyperalgesia); test: Test C: Neuropathic pain model (Chronic Constriction Injury), thermal hyperalgesia paw-withdrawal test; assay type: in vivo, rat; conditions: oral
Description: Test C: Neuropathic Pain Model (Chronic Constriction Injury): […]

## Cc1c(Cn2nc(O)c3[nH]c4cc(Cl)ccc4c(=O)c3c2=O)sc2ccccc12
[1]
  Ki: 161 nM

## Cc1[nH]cnc1Cn1nc(O)c2nc3cc(Cl)ccc3c(O)c2c1=O
[1]
  Ki: 434 nM

## Cc1cc(Cn2nc(O)c3[nH]c4cc(Cl)ccc4c(=O)c3c2=O)c(C)o1 [Ex. 1, 7-Chloro-4-hydroxy-2-[3-(2,5-dimethyl)furanylmethyl]-1,2,5,10-tetrahydropyridazino[4,5-b]quinoline-1,10-dione]
[1]
  Ki: 24.8 nM

## Cc1ccsc1Cn1nc(O)c2[nH]c3cc(Cl)ccc3c(=O)c2c1=O [Ex. 2, 7-Chloro-4-hydroxy-2-[2-(3-methyl)thienylmethyl]-1,2,5,10-tetrahydropyridazino[4,5-b]quinoline-1,10-dione]
[2]; at the MED, compared to vehicle-treated animals
  Test C % Inh. (percent decrease of hyperalgesia) at MED: −15%
[2]; three times daily for 5 days, dose giving statistically significant decrease in hyperalgesia
  Test C MED (minimum effective dose): 30 mg/kg/day

## Cc1occc1Cn1nc(O)c2[nH]c3cc(Cl)ccc3c(=O)c2c1=O [Ex. 4, 7-Chloro-4-hydroxy-2-[(2-methyl(furan-3-yl))methyl]-1,2,5,10-tetrahydropyridazinol[4,5-b]quinonline-1,10-dione]
[1]
  Ki: 28 nM

## O=c1c2ccc(Cl)cc2[nH]c2c(O)nn(Cc3ccc(-c4ccccc4Cl)o3)c(=O)c12 [Ex. 6, 7-Chloro-4-hydroxy-2-{[5-(2-chlorophenyl)(2-furyl)]methyl}-1,2,5,10-tetrahydropyridazino[4,5-b]quinoline-1,2-dione]
[1]
  Ki: 298 nM

## COC(=O)c1ccc(Cn2nc(O)c3[nH]c4cc(Cl)ccc4c(=O)c3c2=O)o1 [Ex. 8, 7-Chloro-4-hydroxy-2-(5-methoxycarbonyl(furan-2-yl)methyl)-1,2,5,10-tetrahydropyirdazino[4,5-b]quinolin-1,10-dione]
[1]
  Ki: 72 nM

## Cc1ccc(Cn2nc(O)c3[nH]c4cc(Cl)ccc4c(=O)c3c2=O)s1 [Ex. 9, 7-Chloro-4-hydroxy-2-(5-methylthien-2-ylmethyl)-1,2,5,10-tetrahydropyridazino[4,5-b]quinoline-1,10-dione]
[1]
  Ki: 28 nM

— US6730675B2 (AstraZeneca AB, priority 1999, dated 2004)
